The results in this text go back to patent publication US20260374739A1, “SMALL MOLECULAR WEIGHT CHEMICAL COMPOUND TO ANTAGONIZE EPH-EPHRIN TETRAMERIZATION AND INHIBIT BIDIRECTIONAL SIGNALING” (THE BOARD OF REGENTS OF THE UNIVERSITY OF TEXAS SYSTEM, priority 2022, published 2026).

What is called IC50 is the midpoint of a concentration-inhibition curve.

Test [1] concerns the target T1, EphrinB2-EphB2 (Homo sapiens, UniProt P29323).
T1 construct: soluble human EphB1-His, EphB2-His, and EphB4-His ectodomains; commercially available human EphrinB1-Fc (EB1), EphrinB2-Fc (EB2), and EphrinB3-Fc (EB3) ectodomain proteins; purchased
T1 sequence (P29323 19-543 limits assumed): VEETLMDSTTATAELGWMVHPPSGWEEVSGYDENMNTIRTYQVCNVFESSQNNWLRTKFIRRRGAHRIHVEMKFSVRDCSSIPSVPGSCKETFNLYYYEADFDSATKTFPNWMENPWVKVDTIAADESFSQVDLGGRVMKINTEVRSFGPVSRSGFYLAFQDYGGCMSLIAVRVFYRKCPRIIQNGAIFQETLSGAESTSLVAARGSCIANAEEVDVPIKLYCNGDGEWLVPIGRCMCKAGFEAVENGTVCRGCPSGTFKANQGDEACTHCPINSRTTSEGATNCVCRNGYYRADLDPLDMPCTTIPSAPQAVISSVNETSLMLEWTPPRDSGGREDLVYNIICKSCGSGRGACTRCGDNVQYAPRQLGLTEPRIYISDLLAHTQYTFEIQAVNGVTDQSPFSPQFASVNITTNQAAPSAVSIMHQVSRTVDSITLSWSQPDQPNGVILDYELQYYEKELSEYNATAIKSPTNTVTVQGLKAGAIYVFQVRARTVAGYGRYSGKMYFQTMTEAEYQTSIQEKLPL
The experiment in a line: Octet tetramerization inhibition, immobilized human EphrinB2 binding to 50 nM soluble human EphB2. Background: In BLI a coated tip is dipped into the sample, and binding shifts an interference pattern.

Test [2] has as its target T1, EphrinB2-EphB2. The experiment in a line: Octet 80 sec association/500 sec dissociation, immobilized human EphrinB2-Fc binding to soluble human EphB2-His. The following applies: for inhibition of EphB2-EphrinB2 binding: association step, general; for EphB2 Inhibition Percent, Inhibition of Association-Dissociation: at 3.2 μM and 580 seconds. In short, it runs like this: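 EphrinB2-Fc captured on AHC biosensors, then soluble His-tagged EphB ectodomain (25 nM for % inhibition runs) associated 80 s and dissociated 500 s in PBS, 0.05% Tween-20, 1% DMSO ± compound. Compounds tested at 0.1–3.2 μM with a 10 μM max standard; IC50 from AUC of full traces or at 75 s and 135 s.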

[3] abbreviates: tetramerization inhibitor IC50 (relative), association step, surmountable tetramer.
Where [4] appears, read: EphB2, 25 nM EphB2, 3.2 μM compound, A20-I as max control, 0* = less than 0, no inhibition, read-out: % Inhibition: Association + Dissociation (160 sec).
The mark [5] stands for this setting: EphB2, 25 nM EphB2, 3.2 μM compound, A20-I as max control, 0* = less than 0, no inhibition, read-out: % Inhibition: Association ONLY (80 sec).
Setting [6] is: Absolute AUC/IC50, Table A, EphrinB2-EphB2.
[7] abbreviates: Absolute Association IC50 (300 sec), Table A, EphrinB2-EphB2.
Setting [8] is: Absolute Dissociation IC50 (450 sec), Table A, EphrinB2-EphB2.
Where [9] appears, read: Relative AUC/IC50, Table A, EphrinB2-EphB2, compound 7: association only.
The mark [10] stands for this setting: Relative Association IC50 (300 sec), Table A, EphrinB2-EphB2.
The mark [11] stands for this setting: Relative Dissociation IC50 (450 sec), Table A, EphrinB2-EphB2.
The mark [12] stands for this setting: immobilized human EphrinB2, 25 nM soluble human EphB2.

Structures are written as SMILES. Several values for one entry are separate records, joined by “and”; a condition that tells them apart may be missing. Equal values may be shown once. Read-outs that look alike come from different tables or passages of the source. Some results are limits rather than exact numbers.

Consider `Oc1c(Br)cc(CN2CCOCC2)c2cccnc12` [Compound 5, 7-bromo-5-(morpholinomethyl)quinolin-8-ol], for which the IC50 in test [1] (absolute IC50, association, dissociation and AUC, A20 salt) is ~1000 nM and 1000 nM; in test [1] (effective/relative IC50, A20 salt) it was < 1000 nM; in test [1] (setting [3]), ~500 nM. The association slope in test [1] (in presence of A20, role: inhibitor, 20° without) was 10 °. In test [1] (read-out: concentration producing maximum inhibition), the IC (maximum) was 1 µM. Also, the inhibition at 1 µM in test [1] (read-out: reduction of association response) was ~50%. Moreover, the inhibition at 3.2 µM in test [2] (setting [4]) was 75.7%; in test [2] (setting [5]), 55.4%.

On to `O=[N+]([O-])c1cc(CN2CCOCC2)c2cccnc2c1O` [Compound 9, 5-(morpholinomethyl)-7-nitroquinolin-8-ol], for which the “tetramerization inhibitor activity” value in test [1] is “weak, essentially inactive”. The IC50 in test [1] (setting [6]), in test [1] (setting [7]), in test [1] (setting [8]), in test [1] (setting [9]), in test [1] (setting [10]) and in test [1] (setting [11]) was > 3200 nM throughout. Also, the IC50 in test [1] (setting [3]) was > 3000 nM. The “% Inhibition: Association + Dissociation (160 sec)” value in test [2] (EphB2, 25 nM EphB2, 3.2 μM compound, A20-I as max control, 0* = less than 0, no inhibition, listed as A19-NO2 (A)) is 58.0% and 38.9%. Also, in test [2], the “inhibition of EphB2-EphrinB2 binding” value worked out at 40%. The “EphB2 Inhibition Percent, Inhibition of Association-Dissociation” value in test [2] (setting [12]) was 58.0% (2×) and 38.9%.

Regarding `COc1ccc2[nH]cc(C(=O)N3CCN(c4ccccc4OC)CC3)c2c1` [Compound 64, (5-methoxy-1H-indol-3-yl)(4-(2-methoxyphenyl)piperazin-1-yl)methanone], the IC50 in test [1] (setting [6]), in test [1] (setting [7]), in test [1] (setting [8]), in test [1] (setting [9]), in test [1] (setting [10]) and in test [1] (setting [11]) was > 1600 nM each time. Moreover, the inhibition at 3.2 µM in test [2] (setting [4]) and in test [2] (setting [5]) was 0% each time.

Turning to `Oc1c(I)cc(CN2CCOCC2)c2cccnc12` [Compound 8, 4-((8-hydroxy-7-iodoquinolin-1-ium-5-yl)methyl)morpholin-4-ium chloride], the IC50 was 1320 nM and 1000 nM and 1480 nM in test [1] (setting [6]); 1380 nM and 1350 nM and > 3200 nM in test [1] (setting [7]); 980 nM and 1260 nM and 850 nM in test [1] (setting [8]); 630 nM in test [1] (setting [9]); 630 nM and 850 nM in test [1] (setting [10]); 660 nM and 930 nM in test [1] (setting [11]). In addition, the “EphB2 Inhibition Percent, Inhibition of Association-Dissociation” value in test [2] (setting [12]) amounted to 73.6%.

As for `COc1ccccc1N1CCN(Cc2cc(Br)c(O)c3ncccc23)CC1` [Compound 70, 7-bromo-5-((4-(2-methoxyphenyl)piperazin-1-yl)methyl)quinolin-8-ol], the IC50 in test [1] (setting [6]) was > 1600 nM; in test [1] (setting [7]), 1200 nM; in test [1] (setting [8]), 360 nM; in test [1] (setting [9]), 170 nM; in test [1] (setting [10]) it was 180 nM; in test [1] (setting [11]), 190 nM. Further, in test [1] (setting [3]), the IC50 was ~200 nM. In addition, the inhibition at 3.2 µM in test [2] (setting [4]) stood at 73%; in test [2] (setting [5]) it was 53.4%.

For `O=C(Cc1ccccc1)Nc1ccc(N2CCN(Cc3ccc(O)c4ncccc34)CC2)cc1` [Compound 51, N-(4-(4-((8-hydroxyquinolin-5-yl)methyl)piperazin-1-yl)phenyl)-2-phenylacetamide], the “disruption of unsurmountable tetramer” value in test [1] (0.8-3.2 μM) is reported as “able to inhibit a small amount of the EphrinB2-EphB2 unsurmountable tetramer”. In addition, the IC50 worked out at 1510 nM in test [1] (setting [6]); 1450 nM in test [1] (setting [7]); 1290 nM in test [1] (setting [8]); 1020 nM in test [1] (setting [9]); 980 nM in test [1] (setting [10]); 930 nM in test [1] (setting [11]). In test [1] (setting [3]), the IC50 is ~1200 nM. Moreover, the inhibition at 3.2 µM in test [2] (setting [4]) is 78.8%; in test [2] (setting [5]), 64.8%.

Regarding `Oc1c(Br)cc(CN2CCN(Cc3ccc(Br)cc3)CC2)c2cccnc12` [Compound 44, 7-bromo-5-((4-(4-bromobenzyl)piperazin-1-yl)methyl)quinolin-8-ol], the “tetramerization inhibitor activity” value in test [1] is recorded as “appears promising”. Besides, the IC50 is > 3200 nM in test [1] (setting [6]); > 3200 nM in test [1] (setting [7]); 380 nM in test [1] (setting [8]); 280 nM in test [1] (setting [10]); 300 nM in test [1] (setting [11]). Further, the inhibition at 3.2 µM in test [2] (setting [4]) amounted to 77.1%; in test [2] (setting [5]), 62.1%.

As to `Oc1ccc(CN2CCN(Cc3ccc(Br)cc3)CC2)c2cccnc12` [Compound 42, 5-((4-(4-bromobenzyl)piperazin-1-yl)methyl)quinolin-8-ol], the IC50 in test [1] (setting [6]) was determined as 2510 nM; in test [1] (setting [8]), 1910 nM; in test [1] (setting [9]), 930 nM; in test [1] (setting [10]), 1020 nM; in test [1] (setting [11]), 1050 nM. Moreover, the inhibition at 3.2 µM is 56.3% in test [2] (setting [4]) and 37.8% in test [2] (setting [5]).

For the compound `O=[N+]([O-])c1cc(CN2CCS(=O)(=O)CC2)c2cccnc2c1O` [Compound 20, 4-((8-hydroxy-7-nitroquinolin-5-yl)methyl)thiomorpholine 1,1-dioxide], the IC50 was > 3200 nM in test [1] (setting [6]); > 3200 nM in test [1] (setting [7]); > 3200 nM in test [1] (setting [8]); 2140 nM in test [1] (setting [10]); 2090 nM in test [1] (setting [11]); > 3000 nM in test [1] (setting [3]). Besides, the inhibition at 3.2 µM was found to be 51.7% in test [2] (setting [4]) and 36.7% in test [2] (setting [5]). Further, the “inhibition of EphB2-EphrinB2 binding” value in test [2] is 40%.

`Oc1c(Cl)cc(CN2CCOCC2)c2cccnc12` [Compound 4, 4-((7-chloro-8-hydroxyquinolin-1-ium-5-yl)methyl)morpholin-4-ium chloride]: the IC50 in test [1] (setting [6]) was 930 nM; in test [1] (setting [7]), 1260 nM; in test [1] (setting [8]) it was 760 nM; in test [1] (setting [9]), 510 nM; in test [1] (setting [10]), 530 nM; in test [1] (setting [11]), 550 nM. For the same compound, the “EphB2 Inhibition Percent, Inhibition of Association ONLY” value in test [2] (at 3.2 μM and 80 seconds, immobilized human EphrinB2, 25 nM soluble human EphB2) was 64.1%. Also, the “EphB2 Inhibition Percent, Inhibition of Association-Dissociation” value in test [2] (setting [12]) came out at 78.1%.

In the case of `Oc1ccc(CN2CCN(Cc3ccc(C(F)(F)F)cc3)CC2)c2cccnc12` [Compound 48, 5-((4-(4-(trifluoromethyl)benzyl)piperazin-1-yl)methyl)quinolin-8-ol], the IC50 in test [1] (setting [6]), in test [1] (setting [7]), in test [1] (setting [8]), in test [1] (setting [9]), in test [1] (setting [10]) and in test [1] (setting [11]) was > 1600 nM each time. Moreover, the inhibition at 3.2 µM in test [2] (setting [4]) is 46.2%; in test [2] (setting [5]), 21.3%.

As for `Oc1ccc(CN2CCN(c3ccc(Br)cn3)CC2)c2cccnc12` [Compound 33, 5-((4-(5-bromopyridin-2-yl)piperazin-1-yl)methyl)quinolin-8-ol], the IC50 in test [1] (setting [6]) is 2510 nM; in test [1] (setting [7]), > 3200 nM; in test [1] (setting [9]), 2190 nM; in test [1] (setting [10]), 1820 nM; in test [1] (setting [11]), 2240 nM. For the same compound, the inhibition at 3.2 µM in test [2] (setting [4]) was found to be 81.6%; in test [2] (setting [5]), 69.4%.
